Each block holds one compound with its values, some of them ahead of it.
Tests used:
[1] = target: T1, Bruton's tyrosine kinase (Btk) (Bos taurus, UniProt Q3ZC95, DEL171-383/L542M/S543T/V555T/R562K/S564A/P565S); assay type: binding
T1 construct: PH-TH-kinase construct (residues 1 to 170 connected to residues 384 to 659)

[2] = target: T2, Bruton's tyrosine kinase (Btk) (Bos taurus, UniProt Q3ZC95); assay: ITC; assay type: binding
T2 construct: PH-TH module (residues 1 to 172)

[3] = target: T3, Bruton's tyrosine kinase (Btk) (Bos taurus, UniProt Q3ZC95, N24D/R28C); assay: ITC with the canonical-site mutant (also printed as R28C/N24D and R28C/N24E); assay type: binding
T3 construct: PH-TH module (residues 1 to 172)

[4] = target: T2, Bruton's tyrosine kinase (Btk); assay: ITC; crystal structure at […] Å; also activates full-length Btk (EC50 around […]); assay type: binding
[5] = target: PH-TH module of bovine Btk (residues 1 to 172) (bovine) (UniProt Q3ZC95); assay: not stated; preliminary studies; dimerization of the PH-TH module induced by IP6; dimer to monomers
[6] = target: Src-like module of mouse Btk (SH3-SH2-kinase module, residues 214 to 659) (mouse) (UniProt P35991); assay: SEC; peak B from mono-Q, HiPrep S-200 16/60, 25 mM Tris·Cl pH 8.5, 25 mM NaCl, 5 mM DTT, 4°C
[7] = target: Src-like module of mouse Btk (SH3-SH2-kinase module, residues 214 to 659) (mouse) (UniProt P35991); assay: cross-linking; peak B; disuccinimidyl glutarate and PAGE analysis; results not shown

T2 sequence (Q3ZC95 1-172): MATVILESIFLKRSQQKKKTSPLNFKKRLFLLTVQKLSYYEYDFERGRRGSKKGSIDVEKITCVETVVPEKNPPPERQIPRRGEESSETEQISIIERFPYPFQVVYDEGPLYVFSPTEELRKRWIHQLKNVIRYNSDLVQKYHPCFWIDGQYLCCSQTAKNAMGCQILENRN
T3 sequence (Q3ZC95 1-172 N24D/R28C): as the sequence (Q3ZC95 1-172) above, with N24D, R28C counted along it
T1 sequence (Q3ZC95 entry or part of it DEL171-383/L542M/S543T/V555T/R562K/S564A/P565S): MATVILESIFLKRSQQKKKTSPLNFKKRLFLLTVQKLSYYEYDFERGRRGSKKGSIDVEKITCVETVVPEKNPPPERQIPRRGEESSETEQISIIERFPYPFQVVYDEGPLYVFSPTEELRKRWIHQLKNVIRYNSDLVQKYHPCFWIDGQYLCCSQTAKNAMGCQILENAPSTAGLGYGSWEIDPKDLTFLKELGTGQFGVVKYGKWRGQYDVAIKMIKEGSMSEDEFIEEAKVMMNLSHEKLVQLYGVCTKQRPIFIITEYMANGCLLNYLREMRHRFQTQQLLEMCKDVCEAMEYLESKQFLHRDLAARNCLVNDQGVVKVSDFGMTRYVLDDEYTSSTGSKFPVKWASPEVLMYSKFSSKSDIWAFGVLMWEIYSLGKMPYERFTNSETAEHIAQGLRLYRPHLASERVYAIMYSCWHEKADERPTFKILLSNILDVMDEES

Kd [5]: > 100000 nM
Compound: PH-TH module of bovine Btk (residues 1 to 172) (from UniProt Q3ZC95 1-172) (domain or fragment)

stoichiometry N [6]: 2
stoichiometry N [7]: 2
Compound: Src-like module of mouse Btk (SH3-SH2-kinase module, residues 214 to 659) (from UniProt P35991 214-659) (domain or fragment)

More lines, now with the values behind:

Compound: Cc1c(NC(=O)c2ccc(C(C)(C)C)cc2)cccc1-c1cn(C)c(=O)c(Nc2ccc(C(=O)N3CCOCC3)cc2)n1 [CGI1746]
crystal structure at 1.7 Å [1]: structure of the PH-TH-kinase with a bound ATP-competitive inhibitor (CGI1746

Compound: O=P(O)(O)O[C@H]1[C@H](O)[C@@H](OP(=O)(O)O)[C@H](OP(=O)(O)O)[C@@H](OP(=O)(O)O)[C@H]1O [IP4, inositol tetrakisphosphate]
Kd [2]: 26 ± 6 nM

Compound: O=P(O)(O)O[C@H]1[C@H](OP(=O)(O)O)[C@@H](OP(=O)(O)O)[C@H](OP(=O)(O)O)[C@@H](OP(=O)(O)O)[C@H]1OP(=O)(O)O [IP6, inositol hexakisphosphate]
Kd [3]: 4760 ± 700 nM
Kd [4]: 238 ± 32 nM

From PMC4384635, “Autoinhibition of Bruton's tyrosine kinase (Btk) and activation by soluble inositol hexakisphosphate” (eLife, 2015)
